# Results: publication PMC12098659 (Scientific Reports, 2025)
# Test system: α-amylase
# Assay: not given
# Details: 100 µM
row,SMILES,inhibition [%]
1,C[C@H]1O[C@H](O[C@H]2[C@H](O)[C@@H](O)[C@@H](O[C@H]3[C@H](O)[C@@H](O)C(O)O[C@@H]3CO)O[C@@H]2CO)[C@H](O)[C@@H](O)[C@@H]1N[C@H]1C=C(CO)[C@@H](O)[C@H](O)[C@H]1O (some centres unmarked) [Acarbose],50.1 ± 0.5

# Target: T1, α-glucosidase (Saccharomyces cerevisiae, UniProt P53341)
# Assay: α-Glucosidase inhibition assay
# Format: biochemical
# Details: not given
# T1 sequence (P53341 whole entry): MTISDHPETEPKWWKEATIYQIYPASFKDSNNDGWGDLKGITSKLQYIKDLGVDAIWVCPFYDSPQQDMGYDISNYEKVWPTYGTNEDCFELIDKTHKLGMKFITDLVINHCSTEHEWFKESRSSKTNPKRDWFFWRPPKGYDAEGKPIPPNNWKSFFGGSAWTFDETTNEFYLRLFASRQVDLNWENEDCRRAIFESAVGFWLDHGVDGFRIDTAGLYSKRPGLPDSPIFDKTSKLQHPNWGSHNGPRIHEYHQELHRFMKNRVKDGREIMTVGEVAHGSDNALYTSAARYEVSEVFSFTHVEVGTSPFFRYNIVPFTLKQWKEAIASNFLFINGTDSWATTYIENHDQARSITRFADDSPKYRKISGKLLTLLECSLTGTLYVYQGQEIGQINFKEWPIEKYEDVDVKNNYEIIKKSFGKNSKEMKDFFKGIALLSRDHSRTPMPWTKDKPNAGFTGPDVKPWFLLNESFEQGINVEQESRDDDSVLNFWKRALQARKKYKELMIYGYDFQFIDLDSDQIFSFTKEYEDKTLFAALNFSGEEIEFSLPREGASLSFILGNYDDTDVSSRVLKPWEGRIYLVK
row,SMILES,IC50 [µM]
1,"N#Cc1c(-c2ccccc2)c(N)c(-c2ccccc2)n2nc(-c3ccccc3)nc12 [Compound 15a, 6-Amino-2,5,7-triphenyl-^1,2,4triazolo[1,5-a]pyridine-8-carbonitrile]",20.32 ± 0.11
2,"COc1ccc(-c2c(N)c(-c3ccccc3)c(C#N)c3nc(-c4ccccc4)nn23)cc1 [Compound 15b, 6-Amino-5-(4-methoxyphenyl)-2,7-diphenyl-^1,2,4triazolo[1,5-a]pyridine-8-carbonitrile]",25.5 ± 0.23
3,"N#Cc1c(-c2ccccc2)c(N)c(-c2ccc(Cl)cc2)n2nc(-c3ccccc3)nc12 [Compound 15c, 6-Amino-5-(4-chlorophenyl)-2,7-diphenyl-^1,2,4triazolo[1,5-a]pyridine-8-carbonitrile]",9.69 ± 0.09
4,"N#Cc1c(-c2ccccc2)c(N)c(-c2cccc(Cl)c2)n2nc(-c3ccccc3)nc12 [Compound 15d, 6-Amino-5-(3-chlorophenyl)-2,7-diphenyl-^1,2,4triazolo[1,5-a]pyridine-8-carbonitrile]",45.54 ± 0.25
5,"N#Cc1c(-c2ccccc2)c(N)c(-c2ccccc2Cl)n2nc(-c3ccccc3)nc12 [Compound 15e, 6-Amino-5-(2-chlorophenyl)-2,7-diphenyl-^1,2,4triazolo[1,5-a]pyridine-8-carbonitrile]",60.64 ± 0.18
6,"N#Cc1c(-c2ccccc2)c(N)c(-c2ccc(Br)cc2)n2nc(-c3ccccc3)nc12 [Compound 15f, 6-Amino-5-(4-bromophenyl)-2,7-diphenyl-^1,2,4triazolo[1,5-a]pyridine-8-carbonitrile]",32 ± 0.32
7,"N#Cc1c(-c2ccccc2)c(N)c(-c2cccs2)n2nc(-c3ccccc3)nc12 [Compound 15g, 6-Amino-2,7-diphenyl-5-(thiophen-2-yl)-^1,2,4triazolo[1,5-a]pyridine-8-carbonitrile]",45.73 ± 0.29
8,"Cc1ccc(-c2c(N)c(-c3ccccc3)n3nc(-c4ccccc4)nc3c2C#N)cc1 [Compound 15h, 6-Amino-2,5-diphenyl-7-(p-tolyl)-^1,2,4triazolo[1,5-a]pyridine-8-carbonitrile]",14.4 ± 0.43
9,"COc1ccc(-c2c(N)c(-c3ccc(C)cc3)c(C#N)c3nc(-c4ccccc4)nn23)cc1 [Compound 15i, 6-Amino-5-(4-methoxyphenyl)-2-phenyl-7-(p-tolyl)-^1,2,4triazolo[1,5-a]pyridine-8-carbonitrile]",8.43 ± 0.25
10,"Cc1ccc(-c2c(N)c(-c3ccc(Cl)cc3)n3nc(-c4ccccc4)nc3c2C#N)cc1 [Compound 15j, 6-Amino-5-(4-chlorophenyl)-2-phenyl-7-(p-tolyl)-^1,2,4triazolo[1,5-a]pyridine-8-carbonitrile]",6.6 ± 0.09
11,"Cc1ccc(-c2c(N)c(-c3ccc(Br)cc3)n3nc(-c4ccccc4)nc3c2C#N)cc1 [Compound 15k, 6-Amino-5-(4-bromophenyl)-2-phenyl-7-(p-tolyl)-^1,2,4triazolo[1,5-a]pyridine-8-carbonitrile]",29.89 ± 0.17
12,"Cc1ccc(-c2c(N)c(-c3cccs3)n3nc(-c4ccccc4)nc3c2C#N)cc1 [Compound 15l, 6-Amino-2-phenyl-5-(thiophen-2-yl)-7-(p-tolyl)-^1,2,4triazolo[1,5-a]pyridine-8-carbonitrile]",21.49 ± 0.09
13,"COc1ccc(-c2c(N)c(-c3ccccc3)n3nc(-c4ccccc4)nc3c2C#N)cc1 [Compound 15m, 6-Amino-7-(4-methoxyphenyl)-2,5-diphenyl-^1,2,4triazolo[1,5-a]pyridine-8-carbonitrile]",9.18 ± 0.12
14,"COc1ccc(-c2c(N)c(-c3ccc(OC)cc3)n3nc(-c4ccccc4)nc3c2C#N)cc1 [Compound 15n, 6-Amino-5,7-bis(4-methoxyphenyl)-2-phenyl-^1,2,4triazolo[1,5-a]pyridine-8-carbonitrile]",22.31 ± 0.08
15,"COc1ccc(-c2c(N)c(-c3ccc(Cl)cc3)n3nc(-c4ccccc4)nc3c2C#N)cc1 [Compound 15o, 6-Amino-5-(4-chlorophenyl)-7-(4-methoxyphenyl)-2-phenyl-^1,2,4triazolo[1,5-a]pyridine-8-carbonitrile]",7.64 ± 0.13
16,"COc1ccc(-c2c(N)c(-c3cccs3)n3nc(-c4ccccc4)nc3c2C#N)cc1 [Compound 15p, 6-Amino-7-(4-methoxyphenyl)-2-phenyl-5-(thiophen-2-yl)-^1,2,4triazolo[1,5-a]pyridine-8-carbonitrile]",36.33 ± 0.09
17,"N#Cc1c(-c2ccc(Cl)cc2)c(N)c(-c2ccccc2)n2nc(-c3ccccc3)nc12 [Compound 15q, 6-Amino-7-(4-chlorophenyl)-2,5-diphenyl-^1,2,4triazolo[1,5-a]pyridine-8-carbonitrile]",38.18 ± 0.14
18,"COc1ccc(-c2c(N)c(-c3ccc(Cl)cc3)c(C#N)c3nc(-c4ccccc4)nn23)cc1 [Compound 15r, 6-Amino-7-(4-chlorophenyl)-5-(4-methoxyphenyl)-2-phenyl-^1,2,4triazolo[1,5-a]pyridine-8-carbonitrile]",49.96 ± 0.11
19,"N#Cc1c(-c2ccc(Cl)cc2)c(N)c(-c2ccc(Cl)cc2)n2nc(-c3ccccc3)nc12 [Compound 15s, 6-Amino-5,7-bis(4-chlorophenyl)-2-phenyl-^1,2,4triazolo[1,5-a]pyridine-8-carbonitrile]",31.49 ± 0.08
20,"N#Cc1c(-c2ccc(Cl)cc2)c(N)c(-c2cccs2)n2nc(-c3ccccc3)nc12 [Compound 15t, 6-Amino-7-(4-chlorophenyl)-2-phenyl-5-(thiophen-2-yl)-^1,2,4triazolo[1,5-a]pyridine-8-carbonitrile]",75.63 ± 0.44
21,"COc1ccc(-c2nc3c(C#N)c(-c4ccccc4)c(N)c(-c4ccccc4)n3n2)cc1 [Compound 15u, 6-Amino-2-(4-methoxyphenyl)-5,7-diphenyl-^1,2,4triazolo[1,5-a]pyridine-8-carbonitrile]",14.8 ± 0.22
22,"N#Cc1c(-c2ccccc2)c(N)c(-c2ccccc2)n2nc(-c3ccc(Cl)cc3)nc12 [Compound 15v, 6-Amino-2-(4-chlorophenyl)-5,7-diphenyl-^1,2,4triazolo[1,5-a]pyridine-8-carbonitrile]",25.13 ± 0.24

# Target: T1, α-glucosidase
# Assay: Enzyme kinetic study
# Format: biochemical
# Details: not given
row,SMILES,Ki [µM]
1,"Cc1ccc(-c2c(N)c(-c3ccc(Cl)cc3)n3nc(-c4ccccc4)nc3c2C#N)cc1 [Compound 15j, 6-Amino-5-(4-chlorophenyl)-2-phenyl-7-(p-tolyl)-^1,2,4triazolo[1,5-a]pyridine-8-carbonitrile]",6.6

# Same assay, conditions: Lineweaver-Burk plot: Km increases, Vmax unchanged
row,SMILES,α-glucosidase inhibition mode
1,"Cc1ccc(-c2c(N)c(-c3ccc(Cl)cc3)n3nc(-c4ccccc4)nc3c2C#N)cc1 [Compound 15j, 6-Amino-5-(4-chlorophenyl)-2-phenyl-7-(p-tolyl)-^1,2,4triazolo[1,5-a]pyridine-8-carbonitrile]",competitive

# Same assay, conditions: enzyme treated with 6.6 µM compound 15j; untreated 62.5
row,SMILES,Maximum velocity (Vm) of the treated enzyme
1,"Cc1ccc(-c2c(N)c(-c3ccc(Cl)cc3)n3nc(-c4ccccc4)nc3c2C#N)cc1 [Compound 15j, 6-Amino-5-(4-chlorophenyl)-2-phenyl-7-(p-tolyl)-^1,2,4triazolo[1,5-a]pyridine-8-carbonitrile]",62.5 (nmol min^− 1)
